Data taken from ChEMBL document CHEMBL4270579, “Structure-activity relationship and conformational studies of the natural product cyclic depsipeptides YM-254890 and FR900359” (Eur J Med Chem, 2018).
*1 amine or outer side, *2 acyl side, *3 side chain or, on linkers, in order; H or OH if unused. Where a SMILES comes first, the peptide text is derived from it. Bridges are numbered along the chain shown (N, C = ends). [ ]: non-standard residue; d: D form. Leu(3R-O(AcLeu(3R-OH))) = CC(=O)N[C@H](C(=O)O[C@H](C(C)C)[C@H](N)C(=O)O)[C@H](O)C(C)C; X1 = CC(C)[C@@H](O[*:3])[C@H](N[*:1])C(=O)[*:2]; NMeT = CN[C@H](C(=O)O)[C@@H](C)O; dPhLac = O=C(O)[C@H](O)Cc1ccccc1; NMeA = CN[C@@H](C)C(=O)O; NMeDha = C=C(NC)C(=O)O

What was measured:
[1] = target: T1, Guanine nucleotide-binding protein subunit alpha-11 (Homo sapiens, UniProt P29992); assay: Inhibition of recombinant human Gq/11 coupled N-terminal 3His-tagged M1 receptor expressed in CHOK1 cells assessed as reduction in carbachol-induced IP1 accumulation pretreated for 1 hr followed by carbachol addition and subsequent incubation for 1 hr at 37 degC measured after 15 mins at room temperature by HTRF assay; type: cell-based
T1 sequence (P29992 whole entry): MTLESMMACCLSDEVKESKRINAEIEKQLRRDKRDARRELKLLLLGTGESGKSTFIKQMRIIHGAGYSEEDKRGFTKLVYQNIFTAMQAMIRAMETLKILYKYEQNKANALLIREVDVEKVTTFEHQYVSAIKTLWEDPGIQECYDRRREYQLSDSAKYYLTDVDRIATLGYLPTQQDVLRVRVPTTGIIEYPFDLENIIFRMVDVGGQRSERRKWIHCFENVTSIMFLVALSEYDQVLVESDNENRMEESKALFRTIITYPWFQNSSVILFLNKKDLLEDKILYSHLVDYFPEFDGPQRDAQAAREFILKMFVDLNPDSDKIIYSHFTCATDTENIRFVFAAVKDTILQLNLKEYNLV

[2] = target: Guanine nucleotide-binding protein G(s) subunit alpha isoforms XLas (Homo sapiens, UniProt Q5JWF2); assay: Inhibition of Gs coupled adrenergic beta2 receptor in HEK293 cells assessed as reduction in isoproterenol-induced cAMP production pretreated for 1 hr followed by isoproterenol addition and measured after 30 mins by FRET assay; type: cell-based
Guanine nucleotide-binding protein G(s) subunit alpha isoforms XLas, sequence (Q5JWF2 whole entry, canonical isoform): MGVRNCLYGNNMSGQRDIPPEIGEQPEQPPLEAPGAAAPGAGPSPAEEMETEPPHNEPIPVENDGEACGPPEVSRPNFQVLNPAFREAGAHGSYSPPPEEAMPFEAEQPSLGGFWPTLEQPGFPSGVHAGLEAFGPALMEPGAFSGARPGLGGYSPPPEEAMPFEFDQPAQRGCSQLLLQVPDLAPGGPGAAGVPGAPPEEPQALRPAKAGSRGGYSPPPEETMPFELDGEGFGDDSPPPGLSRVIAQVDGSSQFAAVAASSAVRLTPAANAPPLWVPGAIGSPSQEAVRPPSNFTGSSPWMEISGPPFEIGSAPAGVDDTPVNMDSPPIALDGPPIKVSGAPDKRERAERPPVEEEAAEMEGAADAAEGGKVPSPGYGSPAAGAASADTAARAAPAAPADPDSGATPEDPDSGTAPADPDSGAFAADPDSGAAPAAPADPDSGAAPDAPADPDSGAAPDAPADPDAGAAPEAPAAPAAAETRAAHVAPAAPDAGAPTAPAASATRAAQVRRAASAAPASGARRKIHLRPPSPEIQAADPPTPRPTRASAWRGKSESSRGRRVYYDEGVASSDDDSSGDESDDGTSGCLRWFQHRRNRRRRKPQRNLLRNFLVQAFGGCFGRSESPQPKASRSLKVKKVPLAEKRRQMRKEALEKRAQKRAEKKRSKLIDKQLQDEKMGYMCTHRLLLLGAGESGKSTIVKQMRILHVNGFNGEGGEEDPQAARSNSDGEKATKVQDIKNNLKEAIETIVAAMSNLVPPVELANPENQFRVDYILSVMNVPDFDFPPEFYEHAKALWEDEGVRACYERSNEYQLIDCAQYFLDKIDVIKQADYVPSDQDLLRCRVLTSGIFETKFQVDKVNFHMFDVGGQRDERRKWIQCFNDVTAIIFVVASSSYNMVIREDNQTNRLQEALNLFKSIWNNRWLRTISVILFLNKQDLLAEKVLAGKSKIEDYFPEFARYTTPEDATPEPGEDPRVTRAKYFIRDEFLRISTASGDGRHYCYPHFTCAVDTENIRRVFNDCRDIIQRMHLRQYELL

SMILES | IC50 [1] | IC50 [2]
C=C1C(=O)N[C@@H](C)C(=O)N(C)[C@@H](C)C(=O)N[C@@H]([C@H](OC(=O)[C@@H](NC(=O)CCCCC)[C@H](O)C(C)C)C(C)C)C(=O)N(C)[C@@H]([C@@H](C)OC)C(=O)O[C@H](C)[C@H](NC(C)=O)C(=O)O[C@H](Cc2ccccc2)C(=O)N1C | 0.88 µM | > 100 µM
C=C1C(=O)N[C@@H](C)C(=O)N(C)[C@@H](C)C(=O)N[C@@H]([C@H](OC(=O)[C@@H](NC(C)=O)[C@H](O)C(C)C)C(C)C)C(=O)N(C)[C@@H]([C@@H](C)OC)C(=O)O[C@@H](C)[C@H](NC(C)=O)C(=O)O[C@H](Cc2ccccc2)C(=O)N1C | > 50 µM | > 100 µM
C=C1C(=O)N[C@@H](C)C(=O)N(C)[C@@H](C)C(=O)N[C@@H]([C@H](OC(=O)[C@@H](NC(C)=O)[C@H](O)C(C)C)C(C)C)C(=O)N(C)[C@@H]([C@@H](C)OC)C(=O)O[C@H](C)[C@H](NC(C)=O)C(=O)O[C@H](Cc2ccccc2)C(=O)N1C | 0.15 µM | > 100 µM
C=C1C(=O)N[C@H](C)C(=O)N(C)[C@@H](C)C(=O)N[C@@H]([C@H](OC(=O)[C@@H](NC(C)=O)[C@H](O)C(C)C)C(C)C)C(=O)N(C)[C@@H]([C@@H](C)OC)C(=O)O[C@H](C)[C@H](NC(C)=O)C(=O)O[C@H](Cc2ccccc2)C(=O)N1C | 36.6 µM | 
C=C1C(=O)N[C@@H](C)C(=O)N(C)[C@@H](C)C(=O)N[C@@H]([C@H](OC(=O)[C@@H](NC(=O)c2ccccc2)[C@H](O)C(C)C)C(C)C)C(=O)N(C)[C@@H]([C@@H](C)OC)C(=O)O[C@H](C)[C@H](NC(C)=O)C(=O)O[C@H](Cc2ccccc2)C(=O)N1C | 2.34 µM | > 100 µM
C=C1C(=O)N[C@@H](C)C(=O)N(C)[C@@H](C)C(=O)N[C@@H]([C@H](OC(=O)[C@@H](NC(C)=O)[C@H](O)C(C)C)C(C)C)C(=O)N(C)[C@@H]([C@@H](C)OC)C(=O)O[C@H](C(C)C)[C@H](NC(C)=O)C(=O)O[C@H](Cc2ccccc2)C(=O)N1C (Ac-[X1][dPhLac][NMeDha]A[NMeA][Leu(3R-O(AcLeu(3R-OH)))][NMeT](Me); ester 1-C) | 0.31 µM | > 100 µM

Other lines, results leading:

IC50 [1] | IC50 [2] | SMILES
> 50 µM | > 100 µM | CO[C@H](C)[C@H]1C(=O)O[C@H](C)[C@H](NC(C)=O)C(=O)O[C@H](CC(C)C)C(=O)N(C)[C@H](CO)C(=O)N[C@@H](C)C(=O)N(C)[C@@H](C)C(=O)N[C@@H]([C@H](OC(=O)[C@@H](NC(C)=O)[C@H](O)C(C)C)C(C)C)C(=O)N1C
1.89 µM | > 100 µM | C=C1C(=O)N[C@@H](C)C(=O)N(C)[C@@H](C)C(=O)N[C@@H]([C@H](OC(=O)[C@@H](NC(C)=O)[C@H](O)C(C)C)C(C)C)C(=O)N(C)[C@@H]([C@@H](C)OC)C(=O)OC[C@H](NC(C)=O)C(=O)O[C@H](Cc2ccccc2)C(=O)N1C
3.69 µM | > 100 µM | C=C1C(=O)N[C@@H](C)C(=O)N(C)[C@@H](C)C(=O)N[C@@H]([C@H](OC(=O)[C@@H](NC(C)=O)[C@H](O)C(C)C)C(C)C)C(=O)N(C)[C@@H]([C@@H](C)OC)C(=O)O[C@H](C)[C@H](NC(C)=O)C(=O)O[C@H](CC(C)C)C(=O)N1C
